Source: patent US20120135959A1, “Metalloprotein inhibitors containing nitrogen based ligands” (priority 2006, published 2012)
Like-named read-outs stand apart in the source and are kept apart here.

Tests used:
MMP-3 = target: T1, MMP-3 (Homo sapiens, UniProt P08254); test: biochemical; format: biochemical
T1 construct: purchased Biomol Research Laboratories

[1] = target: recombinant anthrax lethal factor (Bacillus anthracis, UniProt P15917); test: biochemical; format: biochemical
MMP-1 [2] = target: T2, MMP-1 (Homo sapiens, UniProt P03956); settings: for potency v. AHA: based on MMP-1 IC50; for IC50: read-out: MMP-1 IC50, fluorescence-based assay, pH 7.5, 1 h preincubation at 37° C., at least three independent experiments, spread in brackets
T2 sequence (P03956 100-469): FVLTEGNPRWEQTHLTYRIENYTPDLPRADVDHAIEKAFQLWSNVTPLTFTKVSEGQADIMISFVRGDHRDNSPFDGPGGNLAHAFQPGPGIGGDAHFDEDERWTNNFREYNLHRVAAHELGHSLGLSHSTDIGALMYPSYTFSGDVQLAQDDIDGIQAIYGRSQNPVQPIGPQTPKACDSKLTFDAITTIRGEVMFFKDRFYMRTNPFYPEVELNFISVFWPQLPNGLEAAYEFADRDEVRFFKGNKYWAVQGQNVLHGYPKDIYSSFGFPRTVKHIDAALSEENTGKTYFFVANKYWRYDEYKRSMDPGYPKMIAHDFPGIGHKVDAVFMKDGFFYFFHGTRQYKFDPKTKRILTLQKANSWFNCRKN

[3] = target: T3, soybean lipoxygenase (sbLO) (Glycine max, UniProt P08170); test: Lipoxygenase assay (absorbance at 234 nm, linoleic acid substrate); format: biochemical; settings: 3 hours preincubation; for inhibition at 300 µM: reference compounds, read-out: inhibition of product formation relative to control (no inhibitor)
T3 construct: purchased Sigma-Aldrich
T3 sequence (P08170 1-839): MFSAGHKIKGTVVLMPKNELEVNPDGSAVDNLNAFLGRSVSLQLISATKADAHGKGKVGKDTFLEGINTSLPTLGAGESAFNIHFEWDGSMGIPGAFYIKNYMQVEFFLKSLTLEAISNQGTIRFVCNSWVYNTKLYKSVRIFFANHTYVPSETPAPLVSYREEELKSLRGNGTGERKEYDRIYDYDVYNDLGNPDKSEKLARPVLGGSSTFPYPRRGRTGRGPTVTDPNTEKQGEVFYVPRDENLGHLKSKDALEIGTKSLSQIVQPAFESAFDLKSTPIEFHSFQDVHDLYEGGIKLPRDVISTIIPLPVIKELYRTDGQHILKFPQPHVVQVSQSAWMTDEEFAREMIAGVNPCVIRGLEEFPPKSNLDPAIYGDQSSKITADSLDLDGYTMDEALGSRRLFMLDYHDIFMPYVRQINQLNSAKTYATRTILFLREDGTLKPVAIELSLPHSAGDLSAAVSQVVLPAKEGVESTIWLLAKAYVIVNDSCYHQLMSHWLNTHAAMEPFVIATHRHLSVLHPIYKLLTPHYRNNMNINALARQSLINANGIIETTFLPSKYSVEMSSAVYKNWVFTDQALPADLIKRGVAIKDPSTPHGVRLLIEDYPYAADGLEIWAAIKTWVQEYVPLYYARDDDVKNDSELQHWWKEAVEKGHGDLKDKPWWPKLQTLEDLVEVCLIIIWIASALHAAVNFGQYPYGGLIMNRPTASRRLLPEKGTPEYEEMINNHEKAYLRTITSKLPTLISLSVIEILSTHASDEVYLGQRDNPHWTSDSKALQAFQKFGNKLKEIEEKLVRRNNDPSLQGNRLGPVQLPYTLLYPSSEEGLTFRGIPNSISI

MMP-1 [4] = target: T2, MMP-1; test: biochemical

Sequence of recombinant anthrax lethal factor (P15917 34-809 limits assumed): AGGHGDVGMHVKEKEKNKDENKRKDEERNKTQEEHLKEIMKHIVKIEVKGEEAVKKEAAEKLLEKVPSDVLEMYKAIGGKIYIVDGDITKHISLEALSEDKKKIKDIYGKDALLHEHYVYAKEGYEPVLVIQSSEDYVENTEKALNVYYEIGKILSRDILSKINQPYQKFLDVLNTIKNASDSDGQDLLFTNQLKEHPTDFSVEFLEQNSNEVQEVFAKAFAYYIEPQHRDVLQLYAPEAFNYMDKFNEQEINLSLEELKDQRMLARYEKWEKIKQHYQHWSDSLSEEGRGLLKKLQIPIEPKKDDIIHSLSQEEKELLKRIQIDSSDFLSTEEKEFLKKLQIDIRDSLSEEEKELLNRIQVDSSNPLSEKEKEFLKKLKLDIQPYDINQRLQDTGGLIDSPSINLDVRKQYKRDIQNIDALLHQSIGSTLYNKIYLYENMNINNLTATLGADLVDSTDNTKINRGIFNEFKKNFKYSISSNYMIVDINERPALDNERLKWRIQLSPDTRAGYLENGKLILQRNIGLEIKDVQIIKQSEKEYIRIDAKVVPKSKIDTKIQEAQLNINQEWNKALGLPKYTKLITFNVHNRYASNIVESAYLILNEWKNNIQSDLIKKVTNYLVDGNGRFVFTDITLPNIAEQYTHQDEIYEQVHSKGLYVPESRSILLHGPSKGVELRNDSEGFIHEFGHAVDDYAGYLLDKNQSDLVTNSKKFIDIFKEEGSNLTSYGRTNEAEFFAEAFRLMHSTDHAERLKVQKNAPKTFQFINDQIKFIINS
T1 sequence (P08254 100-477): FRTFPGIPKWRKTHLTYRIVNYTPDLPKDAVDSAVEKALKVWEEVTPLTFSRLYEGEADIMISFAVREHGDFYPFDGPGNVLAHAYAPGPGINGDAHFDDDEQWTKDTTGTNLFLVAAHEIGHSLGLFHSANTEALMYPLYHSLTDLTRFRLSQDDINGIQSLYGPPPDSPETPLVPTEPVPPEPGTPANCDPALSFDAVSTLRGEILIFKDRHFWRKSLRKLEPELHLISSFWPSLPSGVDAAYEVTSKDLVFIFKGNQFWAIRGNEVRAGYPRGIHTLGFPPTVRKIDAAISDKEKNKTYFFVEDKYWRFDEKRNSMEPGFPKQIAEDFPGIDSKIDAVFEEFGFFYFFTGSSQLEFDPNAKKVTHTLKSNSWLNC

Row | Molecule | potency v. AHA (MMP-3) | IC50 (MMP-3; pH 6, read-out: MMP-3 IC50) | IC50 ([1]; pH 7, read-out: LF IC50) | potency v. AHA (MMP-1 [2]) | IC50 (MMP-1 [2]) | inhibition at 300 µM [3] | IC50 (MMP-3) | IC50 (MMP-1 [4]) | IC50 [1] | inhibition of lipoxygenase activity ([3]; ZBGs, method gives chelator final concentration 100 μM)
1 | di(2-picolyl)amine [ZBG 5] | 185-fold | 136 µM | 370 µM | 660-fold |  |  |  |  |  | 
2 | O=C(O)c1cccc(C(=O)O)n1 [ZBG 3, dipicolenic acid] | 4-fold | 6100 µM | 2690 µM | 3-fold | 13500 µM |  |  |  |  | 
3 | Cc1occc(=O)c1O [maltol] |  |  |  |  |  | 70% |  |  |  | 
4 | CC(=O)NO [AHA, acetohydroxamic acid, reference compound] |  |  | 11400 µM |  |  | 99% | 25100 µM | 41600 µM |  | 
5 | c1ccc(CNCc2ccccn2)nc1 [ZBG 5, di(2-picolyl)amine] |  |  |  |  | 63 µM |  |  |  |  | 
6 | O=C(O)c1ccccn1 [ZBG 1, picolinic acid] | 139-fold |  |  | 17-fold |  |  | 181 µM | 2500 µM | 3500 µM | 2.3%
7 | C1CNCCNCCN1 [ZBG 2] | 19-fold | 1350 µM | 1280 µM | 7-fold | 5690 µM |  |  |  |  | 
8 | C1CNCCNCCNCCN1 [ZBG 4, cyclen] | 163-fold | 154 µM | 5700 µM | 98-fold | 430 µM |  |  |  |  | 
9 | O=C(O)CNCC(=O)O [ZBG 6, aminodiacetic acid] | 139-fold | 180 µM | 930 µM | 82-fold | 510 µM |  |  |  |  | 
